Measured values published in article PMC11546692 (International Journal of Molecular Sciences, 2024).

Key:
[1] = test system: MiaPaCa-2 human pancreatic cancer cells xenograft; assay: Subcutaneous MiaPaCa-2 xenograft tumor growth in Scid mice; format: in vivo
[2] = test system: Skp2; assay: Skp2 immunohistochemical staining of xenografted tumors; format: in vivo, Scid mice
[3] = test system: pancreatic cancer (PC) cells; assay: MTT proliferation of human and murine pancreatic cancer cells (overall statements, combinations); format: cell-based; settings: MiaPaCa-2, PANC-1, TB33117, KPCWT942
[4] = test system: normal pancreatic epithelial cell line (HPDE); format: cell-based
[5] = test system: MiaPaCa-2 cells; assay: Cell death by propidium iodide flow cytometry; format: cell-based, human; settings: MiaPaCa-2, 0.05 μM, 48 h
Protocol: (§1) ATO inhibited PC cell growth by stimulation of apoptosis. The effects of PhAs-LHP on cell cycle and cell death were determined by flow cytometry analysis. In MiaPaCa-2 cells, after 48 h treatment, ATO induced about 15% cell death at 0.5 μM while PhAs-LHP (0.05 μM) caused 24% cell death at ten times lower concentrations than ATO (Figure 4A). Likewise, after 24 h treatment, ATO (2 μM) and PhAs-LHP (0.2 μM) induced cell cycle arrest at the G2/M phase in PANC-1 cells (Figure 4B).
Figure 4 PhAs-LHP induced cell death and cell cycle arrest more potently than ATO. MiaPaCa-2 cells were treated with ATO (0.5 μM) or PhAs-LHP (0.05 μM) for 48 h (A). PANC-1 cells were treated with ATO (2 μM) or PhAs-LHP (0.2 μM) for 24 h (B). Both MiaPaCa-2 and PANC-1 cells were then stained with propidium iodide (PI) and subjected to flow cytometry analysis. Numbers indicate the percent of PI-negative cells of a total of 10,000 cells analyzed per condition (A). […]
Cell death and cell cycle were assayed using propidium iodide (PI) and flow cytometry. […] Samples were processed with the FACSymphony A3 flow cytometer (BD Biosciences), and the acquired data were analyzed with the FlowJo software (BD Biosciences, San Jose, CA, USA).

[6] = test system: PANC-1 cells; assay: Cell cycle by propidium iodide flow cytometry; format: cell-based, human; settings: PANC-1, 0.2 μM, 24 h
Protocol: as §1
Figure 4 PhAs-LHP induced cell death and cell cycle arrest more potently than ATO. MiaPaCa-2 cells were treated with ATO (0.5 μM) or PhAs-LHP (0.05 μM) for 48 h (A). PANC-1 cells were treated with ATO (2 μM) or PhAs-LHP (0.2 μM) for 24 h (B). Both MiaPaCa-2 and PANC-1 cells were then stained with propidium iodide (PI) and subjected to flow cytometry analysis. Numbers indicate the percent of PI-negative cells of a total of 10,000 cells analyzed per condition (A). TEXT PRINTED IN THE PICTURE: (A) ATO: % PI Negative 85.4 (0.5 μM) | (A) PhAs-LHP: % PI Negative 75.9 (0.05 μM) | (B) ATO: %G1 28.9 (2 μM); %S 16.7 (2 μM); %G2 48.9 (2 μM) | (B) PhAs-LHP: %G1 39.3 (0.2 μM); %S 19.8 (0.2 μM); %G2 38.6 (0.2 μM)
Cell death and cell cycle were assayed using propidium iodide (PI) and flow cytometry. Cells were treated with ATO or PhAs-LHP with the concentrations indicated in the text for 48 h for measuring cell death or 24 h for determining cell cycle arrest. All floating and adhering cells were then trypsinized and washed two times with cold phosphate-buffered saline (PBS). For cell death assays, cells were harvested and resuspended in PBS containing 1 μg/mL PI. For cell cycle analysis, cells were harvested and resuspended in PBS containing 0.1% Triton X-100, 50 μg/mL PI, and 10 μg/mL RNaseA (Thermo Scientific, Melbourne, Australia) and then incubated at 37 °C for 15 min. Samples were processed with the FACSymphony A3 flow cytometer (BD Biosciences), and the acquired data were analyzed with the FlowJo software (BD Biosciences, San Jose, CA, USA).

[7] = test system: MiaPaCa-2 cells; settings: MiaPaCa-2, 48 h, MTT
[8] = test system: PANC-1 cells; settings: PANC-1, 48 h, MTT
[9] = test system: TB33117 cells; settings: TB33117, 48 h, MTT
[10] = in vivo
[11] = mouse, in vivo
[12] = read-out: IC50 inhibition of PC cell proliferation

Nc1ccn([C@@H]2O[C@H](CO)[C@@H](O)C2(F)F)c(=O)n1 [Gem, gemcitabine, reference compound]
PC growth (tumor volume, tumor weight) ([1]; 50 mg/kg i.p. every 4 days, alone, vs control): significantly decreased PC growth
levels of Skp2 in tumors ([2]; 50 mg/kg i.p., vs non-treatment control, IHC): reduced
effect of pre-treatment on inhibition of PC cell growth by ATO ([3]; 24 h pre-incubation with Gem, then 48 h ATO): enhanced the inhibitory effects of ATO

Cc1nc(Nc2[nH]nc3c2CN(C(=O)N[C@H](CN(C)C)c2ccccc2)C3(C)C)c2sccc2n1 [PF-3758309]
effect of pre-treatment on inhibition of PC cell growth by ATO ([3]; 24 h pre-incubation with PF-3758309, then 48 h ATO): enhanced the inhibitory effects of ATO

CC(=O)N[C@H]1CS[As](c2ccccc2)SC[C@@H](C(N)=O)NC(=O)[C@H](CCCNC(=N)N)NC(=O)[C@H](CCCNC(=N)N)NC(=O)[C@H](CC(C)C)NC(=O)[C@H](CCCNC(=N)N)NC(=O)[C@H](Cc2c[nH]cn2)NC(=O)[C@H](Cc2ccc(O)cc2)NC(=O)[C@H](C)NC1=O (some centres unmarked) [PhAs-LHP]
reduction of proliferation of HPDE [4]: 10%
cell death [5]: 24%
% PI Negative ([5]; of 10,000 cells): 75.9%
%G1 [6]: 39.3%
%G2 [6]: 38.6%
%S [6]: 19.8%
further reduction in tumor volumes and weight on top of Gem ([1]; mouse, in vivo): further decreased tumor volumes
relative tumor growth (Day 7 volume = 100%) ([1]; mouse, in vivo): significantly slower than of Gem plus PAO
pancreatic tumor growth (tumor volume, tumor weight) ([1]; mouse, in vivo, ip): significantly suppressed pancreatic tumor growth
levels of Skp2 in tumors, combination with gemcitabine ([2]; mouse, in vivo): did not further reduce the expression of Skp2
levels of Skp2 in tumors ([2]; mouse, in vivo, ip): reduced
IC50 [7, 12]: 120 ± 100 nM
IC50 [8, 12]: 210 ± 30 nM
IC50 [9, 12]: 200 ± 50 nM
toxicity (mouse body weight) [10]: No toxicity was observed
arsenic (As) in brain, heart, liver and kidney [11]: not detected

CAYHRLRRC [LHP, reference compound]
effect on cell proliferation [7]: did not affect the proliferation
effect on cell proliferation [8]: did not affect the proliferation
effect on cell proliferation [9]: did not affect the proliferation
